# Measurements reported in ChEMBL document CHEMBL1201862, “PubChem BioAssay data set” (2004).
#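 Grown in 96-well plates, cells were treated for 48 hours with each compound at five concentrations. Insufficient inhibition: endpoint recorded as highest concentration tested. GI50 is the concentration that inhibits growth by half.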 Activity calls are given as the source filed them. Cut-off read from the data, not from the text of the source: active = GI50 up to about 1.1 µM and inactive = higher.
# Legend:
# Experiment in all cases: inhibition of tumour cell growth, NCI panel, 48 h
# SF-295 = test system: SF-295
# OVCAR-4 = test system: OVCAR-4
# Malme-3M = test system: Malme-3M
# SK-OV-3 = test system: SK-OV-3
# U-251 = test system: U-251
# A549 = test system: A549
# NCI-H522 = test system: NCI-H522
# UO-31 = test system: UO-31
# TK-10 = test system: TK-10
# SK-MEL-5 = test system: SK-MEL-5
# SNB-78 = test system: SNB-78
# HCT-116 = test system: HCT-116
# ACHN = test system: ACHN
# M14 = test system: M14
# CAKI-1 = test system: CAKI-1
# IGROV-1 = test system: IGROV-1
# 786-0 = test system: 786-0
# UACC-62 = test system: UACC-62
# HCC 2998 = test system: HCC 2998
# HOP-62 = test system: HOP-62
# LXFL 529 = test system: LXFL 529
# SK-MEL-28 = test system: SK-MEL-28
# SNB-19 = test system: SNB-19
# RPMI-8226 = test system: RPMI-8226
# SW-620 = test system: SW-620
# DMS-114 = test system: DMS-114
# MOLT-4 = test system: MOLT-4
# K562 = test system: K562
# HOP-92 = test system: HOP-92
# LOX IMVI = test system: LOX IMVI
# SN12C = test system: SN12C
# NCI-H460 = test system: NCI-H460
# XF498 = test system: XF498
# HOP-18 = test system: HOP-18
# SF-539 = test system: SF-539
# EKVX = test system: EKVX
# NCI-H226 = test system: NCI-H226
# SNB-75 = test system: SNB-75
# SF-268 = test system: SF-268
# UACC-257 = test system: UACC-257
# COLO 205 = test system: COLO 205
# M19-MEL = test system: M19-MEL
# HCT-15 = test system: HCT-15
# NCI-H23 = test system: NCI-H23
# SR = test system: SR
# RXF 393 = test system: RXF 393
# HT-29 = test system: HT-29
# CCRF-CEM = test system: CCRF-CEM
# KM-20L2 = test system: KM-20L2
# DLD-1 = test system: DLD-1
# OVCAR-3 = test system: OVCAR-3
# A498 = test system: A498
# KM12 = test system: KM12
# OVCAR-5 = test system: OVCAR-5
# DMS-273 = test system: DMS-273
# OVCAR-8 = test system: OVCAR-8
# SK-MEL-2 = test system: SK-MEL-2
# HL-60 = test system: HL-60
compound,measurement,setting,value
Nc1nnc(NC(=O)C2=NS(=O)(=O)c3cc(S(N)(=O)=O)c(Cl)cc3N2)[nH]1,GI50,SF-295,> 100 µM (inactive)
same,GI50,OVCAR-4,> 100 µM (inactive)
same,GI50,Malme-3M,> 100 µM (inactive)
same,GI50,SK-OV-3,> 100 µM (inactive)
same,GI50,U-251,> 100 µM (inactive)
same,GI50,A549,> 100 µM (inactive)
same,GI50,NCI-H522,> 100 µM (inactive)
same,GI50,UO-31,> 100 µM (inactive)
same,GI50,TK-10,> 100 µM (inactive)
same,GI50,SK-MEL-5,> 100 µM (inactive)
same,GI50,SNB-78,> 100 µM (inactive)
same,GI50,HCT-116,> 100 µM (inactive)
same,GI50,ACHN,> 100 µM (inactive)
same,GI50,M14,> 100 µM (inactive)
same,GI50,CAKI-1,> 100 µM (inactive)
same,GI50,IGROV-1,> 100 µM (inactive)
same,GI50,786-0,> 100 µM (inactive)
same,GI50,UACC-62,> 100 µM (inactive)
same,GI50,HCC 2998,0.752 µM (active)
same,GI50,HOP-62,> 100 µM (inactive)
same,GI50,LXFL 529,> 100 µM (inactive)
same,GI50,SK-MEL-28,> 100 µM (inactive)
same,GI50,SNB-19,> 100 µM (inactive)
same,GI50,RPMI-8226,> 100 µM (inactive)
same,GI50,SW-620,> 100 µM (inactive)
same,GI50,DMS-114,> 100 µM (inactive)
same,GI50,MOLT-4,> 100 µM (inactive)
same,GI50,K562,> 100 µM (inactive)
same,GI50,HOP-92,> 100 µM (inactive)
same,GI50,LOX IMVI,> 100 µM (inactive)
same,GI50,SN12C,> 100 µM (inactive)
same,GI50,NCI-H460,> 100 µM (inactive)
same,GI50,XF498,> 100 µM (inactive)
same,GI50,HOP-18,> 100 µM (inactive)
same,GI50,SF-539,> 100 µM (inactive)
same,GI50,EKVX,> 100 µM (inactive)
same,GI50,NCI-H226,> 100 µM (inactive)
same,GI50,SNB-75,> 100 µM (inactive)
same,GI50,SF-268,> 100 µM (inactive)
same,GI50,UACC-257,> 100 µM (inactive)
same,GI50,COLO 205,> 100 µM (inactive)
same,GI50,M19-MEL,> 100 µM (inactive)
same,GI50,HCT-15,> 100 µM
same,GI50,NCI-H23,> 100 µM (inactive)
same,GI50,SR,> 100 µM (inactive)
same,GI50,RXF 393,> 100 µM (inactive)
same,GI50,HT-29,> 100 µM (inactive)
same,GI50,CCRF-CEM,> 100 µM (inactive)
same,GI50,KM-20L2,> 100 µM (inactive)
same,GI50,DLD-1,> 100 µM (inactive)
same,GI50,OVCAR-3,> 100 µM (inactive)
same,GI50,A498,> 100 µM (inactive)
same,GI50,KM12,> 100 µM (inactive)
same,GI50,OVCAR-5,> 100 µM (inactive)
O=C(CCc1cc(-c2ccc(F)cc2)n[nH]1)N(Cc1ccccc1)Cc1ccccc1,GI50,SF-295,> 100 µM (inactive)
same,GI50,DMS-273,> 100 µM (inactive)
same,GI50,Malme-3M,> 100 µM (inactive)
same,GI50,SK-OV-3,> 100 µM (inactive)
same,GI50,U-251,> 100 µM (inactive)
same,GI50,A549,> 100 µM (inactive)
same,GI50,NCI-H522,> 100 µM (inactive)
same,GI50,UO-31,> 100 µM (inactive)
same,GI50,TK-10,> 100 µM (inactive)
same,GI50,SK-MEL-5,> 100 µM (inactive)
same,GI50,SNB-78,> 100 µM (inactive)
same,GI50,HCT-116,> 100 µM (inactive)
same,GI50,ACHN,> 100 µM (inactive)
same,GI50,M14,> 100 µM (inactive)
same,GI50,CAKI-1,> 100 µM (inactive)
same,GI50,IGROV-1,> 100 µM (inactive)
same,GI50,786-0,> 100 µM (inactive)
same,GI50,UACC-62,> 100 µM (inactive)
same,GI50,HCC 2998,> 100 µM (inactive)
same,GI50,HOP-62,> 100 µM (inactive)
same,GI50,LXFL 529,> 100 µM (inactive)
same,GI50,SK-MEL-28,> 100 µM (inactive)
same,GI50,SNB-19,> 100 µM (inactive)
same,GI50,RPMI-8226,> 100 µM (inactive)
same,GI50,SW-620,> 100 µM (inactive)
same,GI50,DMS-114,> 100 µM (inactive)
same,GI50,MOLT-4,> 100 µM (inactive)
same,GI50,K562,> 100 µM (inactive)
same,GI50,HOP-92,> 100 µM (inactive)
same,GI50,LOX IMVI,> 100 µM (inactive)
same,GI50,SN12C,> 100 µM (inactive)
same,GI50,NCI-H460,> 100 µM (inactive)
same,GI50,XF498,> 100 µM (inactive)
same,GI50,HOP-18,> 100 µM (inactive)
same,GI50,SF-539,> 100 µM (inactive)
same,GI50,EKVX,> 100 µM (inactive)
same,GI50,NCI-H226,> 100 µM (inactive)
same,GI50,OVCAR-8,> 100 µM (inactive)
same,GI50,SNB-75,> 100 µM (inactive)
same,GI50,SF-268,> 100 µM (inactive)
same,GI50,UACC-257,> 100 µM (inactive)
same,GI50,COLO 205,> 100 µM (inactive)
same,GI50,M19-MEL,> 100 µM (inactive)
same,GI50,HCT-15,> 100 µM
same,GI50,NCI-H23,> 100 µM (inactive)
same,GI50,SR,13.8 µM (inactive)
same,GI50,RXF 393,> 100 µM (inactive)
same,GI50,SK-MEL-2,> 100 µM (inactive)
same,GI50,HT-29,> 100 µM (inactive)
same,GI50,CCRF-CEM,> 100 µM (inactive)
same,GI50,KM-20L2,> 100 µM (inactive)
same,GI50,OVCAR-3,> 100 µM (inactive)
same,GI50,A498,> 100 µM (inactive)
same,GI50,KM12,> 100 µM (inactive)
same,GI50,OVCAR-5,> 100 µM (inactive)
CC1Cc2c(N)nc(NN)nc2NC1=O (stereo unspecified),GI50,SF-295,> 100 µM (inactive)
same,GI50,DMS-273,> 100 µM (inactive)
same,GI50,Malme-3M,> 100 µM (inactive)
same,GI50,SK-OV-3,> 100 µM (inactive)
same,GI50,U-251,> 100 µM (inactive)
same,GI50,A549,> 100 µM (inactive)
same,GI50,NCI-H522,> 100 µM (inactive)
same,GI50,UO-31,> 100 µM (inactive)
same,GI50,TK-10,> 100 µM (inactive)
same,GI50,SK-MEL-5,> 100 µM (inactive)
same,GI50,HCT-116,> 100 µM (inactive)
same,GI50,ACHN,> 100 µM (inactive)
same,GI50,M14,> 100 µM (inactive)
same,GI50,IGROV-1,> 100 µM (inactive)
same,GI50,786-0,> 100 µM (inactive)
same,GI50,UACC-62,> 100 µM (inactive)
same,GI50,HOP-62,> 100 µM (inactive)
same,GI50,SK-MEL-28,> 100 µM (inactive)
same,GI50,SNB-19,> 100 µM (inactive)
same,GI50,RPMI-8226,> 100 µM (inactive)
same,GI50,SW-620,> 100 µM (inactive)
same,GI50,DMS-114,> 100 µM (inactive)
same,GI50,MOLT-4,> 100 µM (inactive)
same,GI50,K562,> 100 µM (inactive)
same,GI50,LOX IMVI,> 100 µM (inactive)
same,GI50,SN12C,> 100 µM (inactive)
same,GI50,NCI-H460,> 100 µM (inactive)
same,GI50,XF498,3.94 µM (inactive)
same,GI50,HOP-18,> 100 µM (inactive)
same,GI50,SF-539,> 100 µM (inactive)
same,GI50,EKVX,> 100 µM (inactive)
same,GI50,NCI-H226,> 100 µM (inactive)
same,GI50,OVCAR-8,> 100 µM (inactive)
same,GI50,SNB-75,> 100 µM (inactive)
same,GI50,UACC-257,> 100 µM (inactive)
same,GI50,COLO 205,> 100 µM (inactive)
same,GI50,M19-MEL,> 100 µM (inactive)
same,GI50,HCT-15,> 100 µM
same,GI50,NCI-H23,> 100 µM (inactive)
same,GI50,HL-60,> 100 µM (inactive)
same,GI50,RXF 393,> 100 µM (inactive)
same,GI50,HT-29,> 100 µM (inactive)
same,GI50,CCRF-CEM,> 100 µM (inactive)
same,GI50,KM-20L2,> 100 µM (inactive)
same,GI50,DLD-1,> 100 µM (inactive)
same,GI50,OVCAR-3,> 100 µM (inactive)
same,GI50,KM12,> 100 µM (inactive)
